Laboratory results from paper PMC6063804 (EJNMMI Research, 2018).
Several values for one entry are separate records, joined by “and”; a condition that tells them apart may be missing. Equal entries are not always repeated.

Columns and labels:
[1] = system: ion channel binding site of NMDA receptors; test: [^18F]PK-209 brain PET, baseline versus S-ketamine infusion; format: in vivo, human; conditions: for V ND / k 3 / K i / % ΔKi: individual subjects S6–S10; for K i: net influx rate; for % ΔKi: percentage change from the baseline scan after ketamine
Method: In total, 20 PET scans were acquired on a Gemini TF-64 PET/CT scanner (Philips Medical Systems, Cleveland, OH, USA). Five subjects underwent [^18F]PK-209 test–retest (TRT) scans 31–61 days apart over a period of 211 days. Another five subjects underwent baseline and ketamine scans 13–161 days apart over a period of 258 days. At the start of each scan [^18F]PK-209 was injected as an intravenous bolus with a mean injected activity of 187 ± 7 MBq. All scans were performed between 12:00 and 15:00 h to minimize diurnal variation. Duration of daylight on each scan day was calculated to investigate seasonal changes in tracer binding. Dynamic PET data were acquired for 120 min and binned into 25 time frames (1 × 15, 3 × 5, 3 × 10, 4 × 60, 2 × 150, 2 × 300, 10 × 600 s). PET was followed by a low-dose CT (30 mAs, 120 kVp) for attenuation correction and localization. Data were reconstructed using a three-dimensional row action maximum likelihood reconstruction algorithm (3-D RAMLA). Acquired PET data were normalized and corrected for dead time, randoms, scatter, attenuation, and decay.
The (S+)-isomer of ketamine (0.5 mg · kg^−1) was dissolved in NaCl 50 mL and administered intravenously in a pseudo-steady state model with a sub-acute loading dose. First, ketamine was administered for 40 min at a rate of 0.006 mg · kg^−1 · min^−1 followed by a 130 min equilibrium phase at 0.002 mg · kg^−1 · min^−1. [^18F]PK-209 injection and start of PET were performed at 10 min into the equilibrium phase, following 0.26 mg · kg^−1 administration in the preceding 50 min.
Prior to the PET studies, structural three-dimensional coronal T1-weighted magnetic resonance images (MRI) were acquired for all subjects on a 1.5T Sonata scanner (Siemens Medical Solutions, Erlangen, Germany) with 160 coronal slices using echo time 3.97 ms, repetition time 2700 ms, flip angle 8°, and voxel size 1.0 × 1.5 × 1.0 mm^3. Subject motion was checked by visual inspection of the alignment of intrasubject PET frames, and no frames were excluded due to excessive movement. T1-weighted MRI scans were co-registered to an average of the PET frames from ~ 4–70 min p.i. using VINCI software. The co-registered MRI scans were segmented into gray matter (GM), white matter, and extra-cerebral fluid, using PVE-lab. Subsequently, 68 regions of interest (ROIs), including whole brain, were derived from the Hammers atlas and used to extract GM time-activity curves (TACs). As a last step, the TACs of 60 out of the 67 ROIs were redefined into nine volume-weighted ROIs by combining the radioactivity at each timepoint according to the equation Bq¯=∑iαi×Bqi/∑iαi , where αi is the volume (in mm^3) of region i, and Bqi the counts per mm^3 of region i. The selection of ROIs was based on the widespread NMDA-R availability in the brain: frontal, temporal, occipital, and parietal cortices; hippocampus; thalamus; insula; brainstem; dorsal striatum; and cerebellum, as well as whole brain GM from the Hammers atlas. Standardized uptake values (SUV; equalling measured activity divided by injected dose per body weight) were calculated for whole brain GM.
Using the metabolite-corrected arterial plasma input function, all GM TACs were fitted to single-tissue (1T2k), two-tissue irreversible (2T3k), and reversible (2T4k) compartmental models, both with and without an additional parameter for fractional blood volume (VB). The non-metabolite-corrected arterial whole blood curve was used as input function for VB. The optimal tracer kinetic model for describing in vivo kinetics of [^18F]PK-209 was determined according to the Akaike Information Criterion (AIC). Depending on the model preference, outcome measures were the net influx constant (Ki = K1 k3/(k2 + k3)) or the distribution volume (VT=K1/k2(1+k3/k4)) . For subsequent group level analysis (e.g., TRT variability and ketamine effects), all scans were analyzed using the same, most preferred, tracer kinetic model. […]

NMDA-R = conditions: cited from earlier work
[2] = 2T3k_VB, single scan IF, baseline scan
[3] = 2T3k_VB, single scan IF, ketamine scan
[4] = mean ketamine versus mean baseline, single scan IF

**Q.** Which “Mean baseline K i” value ([1]; 2T3k_VB, population IF) does the source give for CSc1ccc(Cl)c(NC(=N)N(C)c2cccc(OC[18F])c2)c1 [[^18F]PK-209, 3-(2-chloro-5-(methylthio)phenyl)-1-(3-([^18F]fluoromethoxy)phenyl)-1-methylguanidine] here?
**A.** The value was 0.0106 min⁻¹.

**Q.** And the “Mean ketamine K i” value ([1]; 2T3k_VB, population IF)?
**A.** Its value is 0.0107 min⁻¹.

**Q.** And the “Mean baseline K 1” value ([1]; 2T3k_VB, single scan IF)?
**A.** Its value is 0.492 mL · cm^3 · min^−1.

**Q.** What about the “Mean baseline K i” value ([1]; 2T3k_VB, single scan IF) of the same molecule?
**A.** Its value is 0.0129 min⁻¹.

**Q.** What about the “Mean baseline V ND” value ([1]; 2T3k_VB, single scan IF) of the same molecule?
**A.** Its value is 9.25.

**Q.** What about the “Mean baseline k 3” value ([1]; 2T3k_VB, single scan IF) of the same molecule?
**A.** Its value is 0.0016 min⁻¹.

**Q.** And the “Mean ketamine K 1” value ([1]; 2T3k_VB, single scan IF)?
**A.** Its value is 0.516 mL · cm^3 · min^−1.

**Q.** What about the “Mean ketamine K i” value ([1]; 2T3k_VB, single scan IF) of the same molecule?
**A.** The value was 0.0128 min⁻¹.

**Q.** What about the “Mean ketamine V ND” value ([1]; 2T3k_VB, single scan IF) of the same molecule?
**A.** The value was 9.22.

**Q.** What about the “Mean ketamine k 3” value ([1]; 2T3k_VB, single scan IF) of the same molecule?
**A.** The value was 0.0015 min⁻¹.

**Q.** And the “V ND” value [1, 2]?
**A.** The value was 9.78 and 6.54 and 11.72 and 7.74 and 10.51.

**Q.** What about the “k 3” value [1, 2] of the same molecule?
**A.** Its value is 0.0005 min⁻¹ and 0.0029 min⁻¹ and 0.0007 min⁻¹ and 0.0026 min⁻¹ and 0.0014 min⁻¹.

**Q.** What about the “V ND” value [1, 3] of the same molecule?
**A.** Its value is 9.66 and 9.75 and 10.30 and 6.56 and 9.84.

**Q.** What about the “k 3” value [1, 3] of the same molecule?
**A.** The value was 0.0014 min⁻¹ and 0.0012 min⁻¹ and 0.0008 min⁻¹ and 0.0020 min⁻¹.

**Q.** What about the “Mean baseline K i” value ([1]; 2T3k_VB, within-subject IF) of the same molecule?
**A.** Its value is 0.0147 min⁻¹.

**Q.** And the “Mean ketamine K i” value ([1]; 2T3k_VB, within-subject IF)?
**A.** Its value is 0.0162 min⁻¹.

**Q.** And the “mean SUV90–120” value ([1]; baseline scans)?
**A.** The value was 1.53.

**Q.** What about the “mean SUVAUC” value ([1]; baseline scans) of the same molecule?
**A.** The value was 289 ± 51 SUV·min.

**Q.** What about the “increase in mean SUV90–120 from baseline to ketamine scans” value ([1]; in vivo) of the same molecule?
**A.** The value was 10%.

**Q.** What about the “increase in whole brain SUVAUC following ketamine administration” value ([1]; individual subjects 6–10) of the same molecule?
**A.** Its value is 27% and 1% (2×) and 17% and 8%.

**Q.** What about the “mean SUV90–120” value ([1]; ketamine scans) of the same molecule?
**A.** Its value is 1.68.

**Q.** What about the “mean SUVAUC” value ([1]; ketamine scans) of the same molecule?
**A.** The value was 321 ± 66 SUV·min.

**Q.** What about the “% Change of mean K i” value ([1]; mean ketamine versus mean baseline, population IF) of the same molecule?
**A.** The value was 1%.

**Q.** And the “% Change of mean K 1” value [1, 4]?
**A.** Its value is 5%.

**Q.** What about the “% Change of mean K i” value [1, 4] of the same molecule?
**A.** The value was −1%.

**Q.** What about the “% Change of mean k 3” value [1, 4] of the same molecule?
**A.** Its value is −9%.

**Q.** What about the “% Change of mean K i” value ([1]; mean ketamine versus mean baseline, within-subject IF) of the same molecule?
**A.** Its value is 10%.

**Q.** What about the K i ([1]; 2T3k_VB, population IF, baseline scan) of the same molecule?
**A.** Its K i is 0.0071 min⁻¹ and 0.0150 min⁻¹ and 0.0183 min⁻¹ and 0.0114 min⁻¹ and 0.0011 min⁻¹.

**Q.** And the K i ([1]; 2T3k_VB, population IF, ketamine scan)?
**A.** Its K i is 0.0152 min⁻¹ and 0.0162 min⁻¹ and 0.0167 min⁻¹ and 0.0044 min⁻¹ and 0.0010 min⁻¹.

**Q.** What about the K i [1, 2] of the same molecule?
**A.** The K i was 0.0046 min⁻¹ and 0.0182 min⁻¹ and 0.0083 min⁻¹ and 0.0193 min⁻¹ and 0.0143 min⁻¹.

**Q.** And the K i [1, 3]?
**A.** The K i was 0.0129 min⁻¹ and 0.0118 min⁻¹ and 0.0084 min⁻¹ and 0.0124 min⁻¹ and 0.0186 min⁻¹.

**Q.** What about the K i ([1]; 2T3k_VB, within-subject IF, baseline scan) of the same molecule?
**A.** The K i was 0.0038 min⁻¹ and 0.0170 min⁻¹ and 0.0220 min⁻¹ and 0.0200 min⁻¹ and 0.0105 min⁻¹.

**Q.** What about the K i ([1]; 2T3k_VB, within-subject IF, ketamine scan) of the same molecule?
**A.** Its K i is 0.0128 min⁻¹ and 0.0169 min⁻¹ and 0.0201 min⁻¹ and 0.0118 min⁻¹ and 0.0192 min⁻¹.

**Q.** And the “% ΔKi” value ([1]; population IF)?
**A.** The value was 113% and 8% and −9% and −62% and −10%.

**Q.** What about the “% ΔKi” value ([1]; single scan IF) of the same molecule?
**A.** Its value is 182% and 1% and 30%.

**Q.** What about the “% ΔKi” value ([1]; within-subject IF) of the same molecule?
**A.** The value was 237% and 0% and 83%.

**Q.** What about the “decrease in K1 after ketamine” value ([1]; subjects 8 and 9, respectively) of the same molecule?
**A.** Its value is 18% and 11%.

**Q.** What about the “reduction in mean SUVAUC after MK-801 administration” value (NMDA-R; non-human primate) of the same molecule?
**A.** The value was 15%.

**Q.** What about the “volume of distribution (VT) compared with baseline” value (NMDA-R; rhesus monkeys, IV 0.3 mg ∙ kg^−1 MK-801 30 min before PET) of the same molecule?
**A.** The value was “reduced the volume of distribution (VT) compared with baseline in two out of three subjects”.

**Q.** What about the “retention in NMDA-R-rich cortical regions relative to the cerebellum” value (NMDA-R; rhesus monkeys) of the same molecule?
**A.** The value was “prolonged retention”.
